From patent US20230391729A1, “SUCCINATE SALTS OF N-(3-(4-(3-(DIISOBUTYLAMINO)PROPYL)PIPERAZIN-1-YL)PROPYL)-1H-BENZO[D]IMIDAZOL-2-AMINE, PREPARATION THEREOF AND USE OF THE SAME” (ALZPROTECT, priority 2020, published 2023)

How the values were obtained:
[1] = test system: cortical neurons cultured with microglia; assay: Neuron survival and neurite network (MAP-2) in cortical neurons after Aβ1-42 injury; format: cell-based, rat; settings: Aβ1-42 injury 72 h, co-administered; 10 nM to 100 nM
Protocol: (§1) Rat cortical neurons cultured with microglia were cultured as described by Callizot et al. in J Neurosci Res. 2013, 91: 706-716 with modifications to include microglial cells. Pregnant female rats (Rats Wistar; Janvier Labs France) of 15 days of gestation were killed, after a deep anesthesia with CO2, by cervical dislocation. Then, fetuses were collected and immediately placed in ice-cold L15 Leibovitz medium with a 2% penicillin (10,000 U/ml) and streptomycin (10 mg/ml) solution (PS) and 1% bovine serum albumin (BSA). Cortexes were treated for 20 min at 37° C. with a trypsin-EDTA solution at a final concentration of 0.05% trypsin and 0.02% EDTA. The dissociation was stopped by addition of Dulbecco's modified Eagle's medium (DMEM) with 4.5 g/liter of glucose, containing DNAse I grade II (final concentration 0.5 mg/ml) and 10% fetal calf serum (FCS). Cells were mechanically dissociated by three forced passages through the tip of a 10-mL pipette. […] Viable cells were counted in a Neubauer cytometer, using the trypan blue exclusion test. […]
(§2) Cortical neurons were intoxicated with A3 solutions (see below) after 11 days of culture. […] This solution was gently agitated for 3 days at 37° C. in the dark and immediately used after being properly diluted in control medium to the concentrations used ([…] of Aβ1-42 preparation containing […] of Aβ oligomers (AβO) measured by WB). […]

[2] = 7-day stability tests of the salt (XRPD, HPLC purity); format: physicochemical; settings: for Purity (%) by HPLC after 7-day stability test: 7 days
Protocol: 7-day stability tests were carried out as follows: 15 mg of salt was weighed into x3 2 mL vials. The vials were then placed at 40° C./75% RH, 80° C. and under ambient light; after 1 week, the solids were analysed by XRPD and HPLC purity (method A).

[3] = test system: microglial cells; assay: Microglia activation (OX-41) after Aβ1-42 injury; format: cell-based, rat; settings: Aβ1-42 injury 72 h; at the investigated doses
Protocol: as §1, §2

[4] = Gravimetric vapour sorption (GVS); format: physicochemical
Protocol: Approximately 10-20 mg of sample was placed into a mesh vapour sorption balance pan and loaded into an IGASorp Moisture Sorption Analyser balance by Hiden Analytical. The sample was subjected to a ramping profile from 40-90% relative humidity (RH) at 10% increments, maintaining the sample at each step until a stable weight had been achieved (98% step completion, minimum step length 30 minutes, maximum step length 60 minutes) at 25° C. After completion of the sorption cycle, the sample was dried using the same procedure to 0% RH, and finally taken back to the starting point of 40% RH. Two cycles were performed. The weight change during the sorption/desorption cycles were plotted, allowing for the hygroscopic nature of the sample to be determined.

In the case of “N-(3-(4-(3-(diisobutylamino)propyl)piperazin-1-yl)propyl)-1H-benzo[d]imidazol-2-amine sesqui-succinate salt [sesqui-succinate salt Form 1]”, the “neurite network (MAP-2 staining)” value [1] is reported as “significantly longer”, the “neuron survival: total number of neurons (MAP-2 staining)” value [1] is reported as “neuroprotective” and the “XRPD crystallinity or form after 7-day stability tests” value ([2]; 40° C./75% RH, 80° C. and ambient light) is reported as “no change to crystallinity or form”. For the same substance, the “Purity (%) by HPLC after 7-day stability test” value (shortened to “Purity (%) by HPLC”) ([2]; 40° C./75% RH) was 98.5%, the “Purity (%) by HPLC” value ([2]; 80° C.) was 98.3% and the “Purity (%) by HPLC” value ([2]; Ambient Light) was 98.4%. The “change in HPLC purity after 7-day stability test” value ([2]; each stability condition) was “no change in purity”, the “activation of microglial cells (OX41 area)” value [3] was “able to decrease the activation of microglial cells” and the “Post-GVS XRPD crystalline form” value ([4]; after exposure to GVS humidity conditions) was “remain as the same crystalline form”. The GVS weight uptake ([4]; at 70% RH, 25° C.) was “ca. +0.1 wt. %”, the “GVS water uptake in equivalents” value ([4]; up to 90% RH) was “approximately 7.1 equiv. water” and the GVS weight increase ([4]; up to 90% RH, 25° C.) was “ca. +18.9 wt. %”. For the same substance, the hygroscopicity ([4]; up to 90% relative humidity) was “not hygroscopic”.
